Assay results taken from publication PMC7576608, “Mechanisms of telomerase inhibition by oxidized and therapeutic dNTPs” (Nature Communications, 2020).

Target: telomerase (Homo sapiens, UniProt O14746)
Test: Telomerase extension of 32P-end labeled primers with a single dNTP (percent primer extension)
Type: biochemical
Parameters: made in house; anti-FLAG immunopurification, eluted with 3xFLAG peptide
Conditions: for Percent Primer Extension: 50 μM single dNTP
Procedure: A chain terminating mechanism of inhibition requires that the enzyme adds the modified dNTP to a growing chain, which then blocks further synthesis. […] To test whether telomerase can incorporate other modified dNTPs, and whether the incorporation is chain terminating and/or mutagenic, we conducted direct extension assays in which we radiolabeled the primer and added increasing concentrations (5, 50, and 500 μM) of a single dNTP (Supplementary Figs. 3, 5, 6, and 7). Since modified dNTPs may prefer mispairing, we tested various primers in which the first template base was either rA3, rC1, or rU5 (primer 1, primer 2, and primer 3, respectively), and compared the percent primer extension for each dNTP at the middle 50 μM concentration (Fig. 3). Primers 1 and 2 initiate synthesis at consecutive rA3rA4 or rC1rC2 template bases, respectively, so we could examine both incorporation and extension to the next base. However, the telomerase template lacks tandem rU residues.
Fig. 3 Telomerase insertion of modified dNTPs. Telomerase reactions were conducted with 5 nM ^32P-end labeled primer a Primer 1 (TTAGGG)3, b Primer 2 (GGTTAG)3, or c Primer 3 (AGGGTT)3. Reactions contained cellular-concentration dNTPs (lane 1) or 50 μM of indicated natural dNTP (blue, lanes 2–5), oxidized dNTP (red, lanes 6–8), or therapeutic dNTP (green, lanes 9–11). Products were separated on denaturing gels. […] Letters on the right indicate the template base; P indicates unextended 18-mer primer. Graphs represent the percent of total primers extended. Images are representative of, and data are shown as mean ± s.d. from, three independent experiments. Source data are provided as a Source Data file.
An equal volume of loading buffer (94% formamide, 0.1× TBE, 0.1% bromophenol blue, 0.1% xylene cyanol) was added to the reaction eluent. The samples were heat denatured for 10 min at 100 °C and loaded onto a 14% denaturing acrylamide gel (7 M urea, 1× TBE) and electrophoresed for 90 min at constant 38 W. Samples were imaged using a Typhoon phosphorimager (GE Healthcare). Percent primer extension was calculated with ImageQuant TL 8.2 by measuring the intensity of each product band and dividing by the total radioactivity in the lane or total products, as indicated in the figure legends.
Telomerase reactions were conducted with 5 nM 32P-end labeled primer (a) Primer 1 (TTAGGG)3, (b) Primer 2 (GGTTAG)3, or (c and d) Primer 3 […]
(d) reactions contained 3 µg/µl RNase A. Products were separated on denaturing gels. Letters on the right indicate the template base; P indicates unextended 18-mer primer. Graphs represent the percent of total primers extended for the reactions in panels a – c from one experiment. Panel d is a representative image from three independent experiments. Source data are provided as a Source Data file. […]
Supplementary Fig 4. Time course reactions with telomerase or pol β. (a, b) Telomerase reactions were conducted with 5 nM 32P-end labeled primer (a) Primer 4 (GTTAGG)3 or (b) Primer 2 (GGTTAG)3.
Products were separated on denaturing gels. Letters on the right indicate the template base; P indicates […]
unextended 18-mer primer. […]

[1] = Primer 1 (TTAGGG)3, first template base rA3, Mean of three experiments
[2] = Primer 2 (GGTTAG)3, first template base rC1, Mean of three experiments
[3] = end-labeled primers, single dNTP
[4] = Primer 2 (GGTTAG)3, first template base rC1, single experiments n1-n3
[5] = Primer 3 (AGGGTT)3, first template base rU5, Mean of three experiments
[6] = Primer 3 (AGGGTT)3, first template base rU5, single experiments n1-n3

Sequence of telomerase (O14746 whole entry): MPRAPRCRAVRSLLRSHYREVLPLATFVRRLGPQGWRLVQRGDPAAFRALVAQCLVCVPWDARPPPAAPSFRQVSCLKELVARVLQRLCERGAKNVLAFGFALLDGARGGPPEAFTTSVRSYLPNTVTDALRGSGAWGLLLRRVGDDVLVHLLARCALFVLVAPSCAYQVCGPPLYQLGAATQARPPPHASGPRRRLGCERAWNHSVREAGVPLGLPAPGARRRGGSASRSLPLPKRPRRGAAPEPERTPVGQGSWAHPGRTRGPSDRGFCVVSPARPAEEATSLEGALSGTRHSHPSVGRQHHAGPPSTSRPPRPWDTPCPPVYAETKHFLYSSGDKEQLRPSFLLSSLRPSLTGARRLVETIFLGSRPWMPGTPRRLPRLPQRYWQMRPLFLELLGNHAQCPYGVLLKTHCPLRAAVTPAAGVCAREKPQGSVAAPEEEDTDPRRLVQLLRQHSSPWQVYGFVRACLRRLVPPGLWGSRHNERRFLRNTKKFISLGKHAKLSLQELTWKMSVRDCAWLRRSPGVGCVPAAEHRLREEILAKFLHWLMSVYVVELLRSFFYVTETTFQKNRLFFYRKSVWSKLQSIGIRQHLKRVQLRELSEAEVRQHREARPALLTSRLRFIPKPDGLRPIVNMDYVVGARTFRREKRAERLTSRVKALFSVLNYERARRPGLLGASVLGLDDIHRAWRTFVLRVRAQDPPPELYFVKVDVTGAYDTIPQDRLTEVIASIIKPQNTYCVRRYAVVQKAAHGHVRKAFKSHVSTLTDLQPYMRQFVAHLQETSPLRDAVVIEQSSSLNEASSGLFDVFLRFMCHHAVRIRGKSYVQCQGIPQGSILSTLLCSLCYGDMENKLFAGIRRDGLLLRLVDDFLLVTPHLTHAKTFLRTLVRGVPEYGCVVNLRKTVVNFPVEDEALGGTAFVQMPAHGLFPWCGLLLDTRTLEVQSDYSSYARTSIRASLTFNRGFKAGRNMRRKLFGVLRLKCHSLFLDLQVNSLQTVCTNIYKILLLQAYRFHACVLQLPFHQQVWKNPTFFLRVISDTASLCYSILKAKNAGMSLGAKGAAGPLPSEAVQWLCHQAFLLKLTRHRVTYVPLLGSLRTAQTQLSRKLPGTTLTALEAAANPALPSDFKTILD

## Nc1nc(O)nc2c1ncn2C1CC(O)C(COP(=O)(O)OP(=O)(O)OP(=O)(O)O)O1 (stereo not shown) [2-OH-dATP]
[1]
  Percent Primer Extension: 2.82%
Primer 1, 5µM dNTP
  % Primer Extension: 0.00%
Primer 1, 50µM dNTP
  % Primer Extension: 1.98%
Primer 1, 500µM dNTP
  % Primer Extension: 6.01%
[2]
  Percent Primer Extension: 1.32%
Primer 2, 5µM dNTP
  % Primer Extension: 0.00%
Primer 2, 50µM dNTP
  % Primer Extension: 1.93%
Primer 2, 500µM dNTP
  % Primer Extension: 3.14%
Primer 3, insertion opposite rU5, 50 μM
  Fold less product than with dATP: 2 fold
Primer 3, 5µM dNTP
  % Primer Extension: 8.27%
Primer 3, 50µM dNTP
  % Primer Extension: 15.94%
Primer 3, 500µM dNTP
  % Primer Extension: 46.35%
Misinsertion opposite rA3 and rC1
  Mutagenic insertion by telomerase (in words): not mutagenic

## Nc1nc2c(ncn2C2CC(O)C(COP(=O)(O)OP(=O)(O)OP(=O)(O)O)O2)c(=S)[nH]1 (stereo not shown) [6-thio-dGTP]
Primer 1, 5µM dNTP
  % Primer Extension: 0%
Primer 1, 50µM dNTP
  % Primer Extension: 3.68%
Primer 1, 500µM dNTP
  % Primer Extension: 4.47%
Primer 2, 5µM dNTP
  % Primer Extension: 6.19%
Primer 2, 50µM dNTP
  % Primer Extension: 6.25%
Primer 2, 500µM dNTP
  % Primer Extension: 8.35%
Primer 3, 5µM dNTP
  % Primer Extension: 6.75%
Primer 3, 50µM dNTP
  % Primer Extension: 6.04%
Primer 3, 500µM dNTP
  % Primer Extension: 7.79%
[3]
  Chain termination after telomerase insertion (in words): not a telomerase chain terminator

## Nc1ncnc2c1[nH]c(=O)n2C1CC(O)C(COP(=O)(O)OP(=O)(O)OP(=O)(O)O)O1 (stereo not shown) [8-oxo-dATP]
[1]
  Percent Primer Extension: 0.53%
Primer 1, 5µM dNTP
  % Primer Extension: 0.00%
Primer 1, 50µM dNTP
  % Primer Extension: 0.00%
Primer 1, 500µM dNTP
  % Primer Extension: 1.79%
[2]
  Percent Primer Extension: 0.00%
[4]
  Percent Primer Extension: 0.00%
Primer 2, 5µM dNTP
  % Primer Extension: 0.00%
Primer 2, 50µM dNTP
  % Primer Extension: 0.00%
Primer 2, 500µM dNTP
  % Primer Extension: 0.00%
[5]
  Percent Primer Extension: 0.00%
[6]
  Percent Primer Extension: 0.00%
Primer 3, 5µM dNTP
  % Primer Extension: 0.00%
Primer 3, 50µM dNTP
  % Primer Extension: 0.00%
Primer 3, 500µM dNTP
  % Primer Extension: 0.00%
[3]
  Quality as telomerase substrate (in words): very poor substrate for telomerase

## Nc1nc2c([nH]c(=O)n2C2CC(O)C(COP(=O)(O)OP(=O)(O)OP(=O)(O)O)O2)c(=O)[nH]1 (stereo not shown) [8-oxo-dGTP]
[1]
  Percent Primer Extension: 10.80%
Primer 1, 5µM dNTP
  % Primer Extension: 5.20%
Primer 1, 50µM dNTP
  % Primer Extension: 7.44%
Primer 1, 500µM dNTP
  % Primer Extension: 8.42%
[2]
  Percent Primer Extension: 0.96%
Primer 2, 5µM dNTP
  % Primer Extension: 0.88%
Primer 2, 50µM dNTP
  % Primer Extension: 1.37%
Primer 2, 500µM dNTP
  % Primer Extension: 6.18%
[5]
  Percent Primer Extension: 0.00%
[6]
  Percent Primer Extension: 0.00%
Primer 3, 5µM dNTP
  % Primer Extension: 0.00%
Primer 3, 50µM dNTP
  % Primer Extension: 0.00%
Primer 3, 500µM dNTP
  % Primer Extension: 0.00%
[3]
  Chain termination after telomerase insertion (in words): chain-terminating ability

## Cc1cn([C@H]2C[C@H](N=[N+]=[N-])[C@@H](CO[P@](=O)(O)O[P@](=O)(O)OP(=O)(O)O)O2)c(=O)[nH]c1=O [AZT-TP]
[2]
  Percent Primer Extension: 0.00%
[4]
  Percent Primer Extension: 0.00%
[5]
  Percent Primer Extension: 0.00%
[6]
  Percent Primer Extension: 0.00%
[3]
  Chain termination after telomerase insertion (in words): genuine telomerase chain terminators

## Nc1ncnc2c1ncn2C1CC(O)C(COP(=O)(O)OP(=O)(O)OP(=O)(O)O)O1 (stereo not shown) [dATP]
[1]
  Percent Primer Extension: 3.48%
Primer 1, 5µM dNTP
  % Primer Extension: 0.00%
Primer 1, 50µM dNTP
  % Primer Extension: 1.84%
Primer 1, 500µM dNTP
  % Primer Extension: 3.63%
[2]
  Percent Primer Extension: 0.00%
[4]
  Percent Primer Extension: 0.00%
Primer 2, 5µM dNTP
  % Primer Extension: 0.00%
Primer 2, 50µM dNTP
  % Primer Extension: 0.00%
Primer 2, 500µM dNTP
  % Primer Extension: 2.50%
Primer 3, 5µM dNTP
  % Primer Extension: 11.52%
Primer 3, 50µM dNTP
  % Primer Extension: 14.88%
Primer 3, 500µM dNTP
  % Primer Extension: 23.85%

## Nc1nc2c(ncn2C2CC(O)C(COP(=O)(O)OP(=O)(O)OP(=O)(O)O)O2)c(=O)[nH]1 (stereo not shown) [dGTP]
Primer 1, 5 µM dGTP, one experiment
  % Primer Extension: 5.54%
Primer 1, 50 µM dGTP, one experiment
  % Primer Extension: 14.06%
Primer 1, 500 µM dGTP, one experiment
  % Primer Extension: 18.26%
Primer 2, 5 µM dGTP, one experiment
  % Primer Extension: 20.91%
Primer 2, 50 µM dGTP, one experiment
  % Primer Extension: 31.85%
Primer 2, 500 µM dGTP, one experiment
  % Primer Extension: 40.91%
Primer 3, 5 µM dGTP, one experiment
  % Primer Extension: 2.22%
Primer 3, 50 µM dGTP, one experiment
  % Primer Extension: 6.90%
Primer 3, 500 µM dGTP, one experiment
  % Primer Extension: 12.81%
Time course, 50 μM dGTP, primer 2 (GGTTAG)3, 0 minutes
  % Primer Extension: 0.00%
Time course, 50 μM dGTP, primer 2 (GGTTAG)3, 1 minute
  % Primer Extension: 1.70%
Time course, 50 μM dGTP, primer 2 (GGTTAG)3, 3 minutes
  % Primer Extension: 2.22%
Time course, 50 μM dGTP, primer 2 (GGTTAG)3, 5 minutes
  % Primer Extension: 2.61%
Time course, 50 μM dGTP, primer 2 (GGTTAG)3, 9 minutes
  % Primer Extension: 2.82%
Time course, 50 μM dGTP, primer 2 (GGTTAG)3, 15 minutes
  % Primer Extension: 7.50%
Time course, 50 μM dGTP, primer 2 (GGTTAG)3, 30 minutes
  % Primer Extension: 7.57%
Time course, 50 μM dGTP, primer 2 (GGTTAG)3, 45 minutes
  % Primer Extension: 7.80%
Time course, 50 μM dGTP, primer 4 (GTTAGG)3, 0 minutes
  % Primer Extension: 0.00%
Time course, 50 μM dGTP, primer 4 (GTTAGG)3, 1 minute
  % Primer Extension: 1.79%
Time course, 50 μM dGTP, primer 4 (GTTAGG)3, 3 minutes
  % Primer Extension: 0.86%
Time course, 50 μM dGTP, primer 4 (GTTAGG)3, 5 minutes
  % Primer Extension: 1.17%
Time course, 50 μM dGTP, primer 4 (GTTAGG)3, 9 minutes
  % Primer Extension: 1.23%
Time course, 50 μM dGTP, primer 4 (GTTAGG)3, 15 minutes
  % Primer Extension: 1.72%
Time course, 50 μM dGTP, primer 4 (GTTAGG)3, 30 minutes
  % Primer Extension: 4.10%
Time course, 50 μM dGTP, primer 4 (GTTAGG)3, 45 minutes
  % Primer Extension: 8.71%

## Cc1cn(C2CC(O)C(COP(=O)(O)OP(=O)(O)OP(=O)(O)O)O2)c(=O)[nH]c1=O (stereo not shown) [dTTP]
Primer 1, 5µM dNTP
  % Primer Extension: 30.00%
Primer 1, 50µM dNTP
  % Primer Extension: 36.00%
Primer 1, 500µM dNTP
  % Primer Extension: 45.00%
[2]
  Percent Primer Extension: 0.00%
[4]
  Percent Primer Extension: 0.00%
Primer 2, 5µM dNTP
  % Primer Extension: 0.00%
Primer 2, 50µM dNTP
  % Primer Extension: 0.00%
Primer 2, 500µM dNTP
  % Primer Extension: 0.00%
Primer 3, 5µM dNTP
  % Primer Extension: 3.79%
Primer 3, 50µM dNTP
  % Primer Extension: 9.26%
Primer 3, 500µM dNTP
  % Primer Extension: 17.69%

## O=c1[nH]cnc2c1ncn2C1CCC(COP(=O)(O)OP(=O)(O)OP(=O)(O)O)O1 (stereo not shown) [ddITP]
[1]
  Percent Primer Extension: 1.59%
Primer 1, 5µM dNTP
  % Primer Extension: 3.46%
Primer 1, 50µM dNTP
  % Primer Extension: 4.29%
Primer 1, 500µM dNTP
  % Primer Extension: 6.73%
Primer 2, 5µM dNTP
  % Primer Extension: 0%
Primer 2, 50µM dNTP
  % Primer Extension: 4.27%
Primer 2, 500µM dNTP
  % Primer Extension: 5.45%
[5]
  Percent Primer Extension: 0.00%
[6]
  Percent Primer Extension: 0.00%
Primer 3, 5µM dNTP
  % Primer Extension: 0%
Primer 3, 50µM dNTP
  % Primer Extension: 0%
Primer 3, 500µM dNTP
  % Primer Extension: 0%
[3]
  Chain termination after telomerase insertion (in words): genuine telomerase chain terminators
